Experimental data published in the NIST ThermoML archive (doi:10.1021/je900482x).
± gives the expanded uncertainty stated by the source.

Assay: isobaric coefficient of expansion
Conditions: 308.15 K; 5000 kPa; Liquid; Microcalorimeter

Compared with CCn1cc[n+](C)c1.F[B-](F)(F)F [1-ethyl-3-methylimidazolium tetrafluoroborate], CCCCCCn1cc[n+](C)c1.F[B-](F)(F)F [1-hexyl-3-methylimidazolium tetrafluoroborate] is higher in “isobaric coefficient of expansion” value: 0.000597 ± 1.5e-05 1/K for the first, 0.000605 ± 1.5e-05 1/K for the second.

Compared with CCCCCC[n+]1ccn(C)c1.O=S(=O)([N-]S(=O)(=O)C(F)(F)F)C(F)(F)F, CCn1cc[n+](C)c1.O=S(=O)([N-]S(=O)(=O)C(F)(F)F)C(F)(F)F is lower in “isobaric coefficient of expansion” value: 0.000659 ± 1.6e-05 1/K for the first, 0.000656 ± 1.6e-05 1/K for the second.

First: CCCCCCCC[n+]1ccn(C)c1.F[B-](F)(F)F [1-methyl-3-octylimidazolium tetrafluoroborate]
Second: CCCC[n+]1cccc(C)c1.F[B-](F)(F)F [1-butyl-3-methylpyridinium tetrafluoroborate]
The “isobaric coefficient of expansion” value of the first is higher: 0.000605 ± 1.2e-05 1/K for the first, 0.000588 ± 1.4e-05 1/K for the second.

Same assay, conditions: 308.15 K; 10000 kPa; Liquid; Microcalorimeter

Going from CCn1cc[n+](C)c1.F[B-](F)(F)F [1-ethyl-3-methylimidazolium tetrafluoroborate] to CCCCCCn1cc[n+](C)c1.F[B-](F)(F)F [1-hexyl-3-methylimidazolium tetrafluoroborate], the “isobaric coefficient of expansion” value rises from 0.000589 ± 1.4e-05 1/K to 0.000596 ± 1.5e-05 1/K.

Compared with CCCCCC[n+]1ccn(C)c1.O=S(=O)([N-]S(=O)(=O)C(F)(F)F)C(F)(F)F, CCn1cc[n+](C)c1.O=S(=O)([N-]S(=O)(=O)C(F)(F)F)C(F)(F)F is lower in “isobaric coefficient of expansion” value: 0.000648 ± 1.6e-05 1/K for the first, 0.000644 ± 1.6e-05 1/K for the second.

Going from CCCCCCCC[n+]1ccn(C)c1.F[B-](F)(F)F [1-methyl-3-octylimidazolium tetrafluoroborate] to CCCC[n+]1cccc(C)c1.F[B-](F)(F)F [1-butyl-3-methylpyridinium tetrafluoroborate], the “isobaric coefficient of expansion” value falls from 0.000596 ± 1.2e-05 1/K to 0.000582 ± 1.4e-05 1/K.

Same assay, conditions: 308.15 K; 15000 kPa; Liquid; Microcalorimeter

First: CCn1cc[n+](C)c1.F[B-](F)(F)F [1-ethyl-3-methylimidazolium tetrafluoroborate]
Second: CCCCCCn1cc[n+](C)c1.F[B-](F)(F)F [1-hexyl-3-methylimidazolium tetrafluoroborate]
The “isobaric coefficient of expansion” value of the first is lower: 0.000581 ± 1.4e-05 1/K for the first, 0.000589 ± 1.4e-05 1/K for the second.

CCCCCC[n+]1ccn(C)c1.O=S(=O)([N-]S(=O)(=O)C(F)(F)F)C(F)(F)F and CCn1cc[n+](C)c1.O=S(=O)([N-]S(=O)(=O)C(F)(F)F)C(F)(F)F are the same in “isobaric coefficient of expansion” value: 0.000637 ± 1.6e-05 1/K for the first, 0.000637 ± 1.6e-05 1/K for the second.

Compared with CCCCCCCC[n+]1ccn(C)c1.F[B-](F)(F)F [1-methyl-3-octylimidazolium tetrafluoroborate], CCCC[n+]1cccc(C)c1.F[B-](F)(F)F [1-butyl-3-methylpyridinium tetrafluoroborate] is lower in “isobaric coefficient of expansion” value: 0.000589 ± 1.2e-05 1/K for the first, 0.000576 ± 1.4e-05 1/K for the second.

Same assay, conditions: 308.15 K; 20000 kPa; Liquid; Microcalorimeter

Compared with CCn1cc[n+](C)c1.F[B-](F)(F)F [1-ethyl-3-methylimidazolium tetrafluoroborate], CCCCCCn1cc[n+](C)c1.F[B-](F)(F)F [1-hexyl-3-methylimidazolium tetrafluoroborate] is higher in “isobaric coefficient of expansion” value: 0.000573 ± 1.4e-05 1/K for the first, 0.000579 ± 1.4e-05 1/K for the second.

First: CCCCCC[n+]1ccn(C)c1.O=S(=O)([N-]S(=O)(=O)C(F)(F)F)C(F)(F)F
Second: CCn1cc[n+](C)c1.O=S(=O)([N-]S(=O)(=O)C(F)(F)F)C(F)(F)F
The “isobaric coefficient of expansion” value of the first is higher: 0.000628 ± 1.5e-05 1/K for the first, 0.000627 ± 1.5e-05 1/K for the second.

Going from CCCCCCCC[n+]1ccn(C)c1.F[B-](F)(F)F [1-methyl-3-octylimidazolium tetrafluoroborate] to CCCC[n+]1cccc(C)c1.F[B-](F)(F)F [1-butyl-3-methylpyridinium tetrafluoroborate], the “isobaric coefficient of expansion” value falls from 0.000579 ± 1.2e-05 1/K to 0.000569 ± 1.4e-05 1/K.

Same assay, conditions: 308.15 K; 25000 kPa; Liquid; Microcalorimeter

First: CCn1cc[n+](C)c1.F[B-](F)(F)F [1-ethyl-3-methylimidazolium tetrafluoroborate]
Second: CCCCCCn1cc[n+](C)c1.F[B-](F)(F)F [1-hexyl-3-methylimidazolium tetrafluoroborate]
The “isobaric coefficient of expansion” value of the first is lower: 0.000566 ± 1.4e-05 1/K for the first, 0.000572 ± 1.4e-05 1/K for the second.

CCCCCC[n+]1ccn(C)c1.O=S(=O)([N-]S(=O)(=O)C(F)(F)F)C(F)(F)F and CCn1cc[n+](C)c1.O=S(=O)([N-]S(=O)(=O)C(F)(F)F)C(F)(F)F are the same in “isobaric coefficient of expansion” value: 0.000618 ± 1.5e-05 1/K for the first, 0.000618 ± 1.5e-05 1/K for the second.

First: CCCCCCCC[n+]1ccn(C)c1.F[B-](F)(F)F [1-methyl-3-octylimidazolium tetrafluoroborate]
Second: CCCC[n+]1cccc(C)c1.F[B-](F)(F)F [1-butyl-3-methylpyridinium tetrafluoroborate]
The “isobaric coefficient of expansion” value of the first is higher: 0.000572 ± 1.1e-05 1/K for the first, 0.000563 ± 1.4e-05 1/K for the second.

Same assay, conditions: 308.15 K; 30000 kPa; Liquid; Microcalorimeter

Going from CCn1cc[n+](C)c1.F[B-](F)(F)F [1-ethyl-3-methylimidazolium tetrafluoroborate] to CCCCCCn1cc[n+](C)c1.F[B-](F)(F)F [1-hexyl-3-methylimidazolium tetrafluoroborate], the “isobaric coefficient of expansion” value rises from 0.000561 ± 1.4e-05 1/K to 0.000565 ± 1.4e-05 1/K.

Compared with CCCCCC[n+]1ccn(C)c1.O=S(=O)([N-]S(=O)(=O)C(F)(F)F)C(F)(F)F, CCn1cc[n+](C)c1.O=S(=O)([N-]S(=O)(=O)C(F)(F)F)C(F)(F)F is higher in “isobaric coefficient of expansion” value: 0.000609 ± 1.5e-05 1/K for the first, 0.000611 ± 1.5e-05 1/K for the second.

Going from CCCCCCCC[n+]1ccn(C)c1.F[B-](F)(F)F [1-methyl-3-octylimidazolium tetrafluoroborate] to CCCC[n+]1cccc(C)c1.F[B-](F)(F)F [1-butyl-3-methylpyridinium tetrafluoroborate], the “isobaric coefficient of expansion” value falls from 0.000565 ± 1.1e-05 1/K to 0.00056 ± 1.4e-05 1/K.

Same assay, conditions: 308.15 K; 35000 kPa; Liquid; Microcalorimeter

Compared with CCn1cc[n+](C)c1.F[B-](F)(F)F [1-ethyl-3-methylimidazolium tetrafluoroborate], CCCCCCn1cc[n+](C)c1.F[B-](F)(F)F [1-hexyl-3-methylimidazolium tetrafluoroborate] is higher in “isobaric coefficient of expansion” value: 0.000554 ± 1.4e-05 1/K for the first, 0.00056 ± 1.4e-05 1/K for the second.

Compared with CCCCCC[n+]1ccn(C)c1.O=S(=O)([N-]S(=O)(=O)C(F)(F)F)C(F)(F)F, CCn1cc[n+](C)c1.O=S(=O)([N-]S(=O)(=O)C(F)(F)F)C(F)(F)F is higher in “isobaric coefficient of expansion” value: 0.0006 ± 1.5e-05 1/K for the first, 0.000605 ± 1.5e-05 1/K for the second.

Compared with CCCCCCCC[n+]1ccn(C)c1.F[B-](F)(F)F [1-methyl-3-octylimidazolium tetrafluoroborate], CCCC[n+]1cccc(C)c1.F[B-](F)(F)F [1-butyl-3-methylpyridinium tetrafluoroborate] is lower in “isobaric coefficient of expansion” value: 0.00056 ± 1.1e-05 1/K for the first, 0.000555 ± 1.4e-05 1/K for the second.

Same assay, conditions: 308.15 K; 40000 kPa; Liquid; Microcalorimeter

First: CCn1cc[n+](C)c1.F[B-](F)(F)F [1-ethyl-3-methylimidazolium tetrafluoroborate]
Second: CCCCCCn1cc[n+](C)c1.F[B-](F)(F)F [1-hexyl-3-methylimidazolium tetrafluoroborate]
The “isobaric coefficient of expansion” value of the first is lower: 0.00055 ± 1.3e-05 1/K for the first, 0.000553 ± 1.4e-05 1/K for the second.

Compared with CCCCCC[n+]1ccn(C)c1.O=S(=O)([N-]S(=O)(=O)C(F)(F)F)C(F)(F)F, CCn1cc[n+](C)c1.O=S(=O)([N-]S(=O)(=O)C(F)(F)F)C(F)(F)F is higher in “isobaric coefficient of expansion” value: 0.000594 ± 1.5e-05 1/K for the first, 0.000597 ± 1.5e-05 1/K for the second.

Compared with CCCCCCCC[n+]1ccn(C)c1.F[B-](F)(F)F [1-methyl-3-octylimidazolium tetrafluoroborate], CCCC[n+]1cccc(C)c1.F[B-](F)(F)F [1-butyl-3-methylpyridinium tetrafluoroborate] is lower in “isobaric coefficient of expansion” value: 0.000553 ± 1.1e-05 1/K for the first, 0.000551 ± 1.3e-05 1/K for the second.

Same assay, conditions: 308.15 K; 45000 kPa; Liquid; Microcalorimeter

First: CCn1cc[n+](C)c1.F[B-](F)(F)F [1-ethyl-3-methylimidazolium tetrafluoroborate]
Second: CCCCCCn1cc[n+](C)c1.F[B-](F)(F)F [1-hexyl-3-methylimidazolium tetrafluoroborate]
The “isobaric coefficient of expansion” value of the first is lower: 0.000542 ± 1.3e-05 1/K for the first, 0.000545 ± 1.3e-05 1/K for the second.

First: CCCCCC[n+]1ccn(C)c1.O=S(=O)([N-]S(=O)(=O)C(F)(F)F)C(F)(F)F
Second: CCn1cc[n+](C)c1.O=S(=O)([N-]S(=O)(=O)C(F)(F)F)C(F)(F)F
The “isobaric coefficient of expansion” value of the first is lower: 0.000585 ± 1.4e-05 1/K for the first, 0.000589 ± 1.4e-05 1/K for the second.

CCCCCCCC[n+]1ccn(C)c1.F[B-](F)(F)F [1-methyl-3-octylimidazolium tetrafluoroborate] and CCCC[n+]1cccc(C)c1.F[B-](F)(F)F [1-butyl-3-methylpyridinium tetrafluoroborate] are the same in “isobaric coefficient of expansion” value: 0.000545 ± 1.1e-05 1/K for the first, 0.000545 ± 1.3e-05 1/K for the second.

Same assay, conditions: 308.15 K; 50000 kPa; Liquid; Microcalorimeter

Going from CCn1cc[n+](C)c1.F[B-](F)(F)F [1-ethyl-3-methylimidazolium tetrafluoroborate] to CCCCCCn1cc[n+](C)c1.F[B-](F)(F)F [1-hexyl-3-methylimidazolium tetrafluoroborate], the “isobaric coefficient of expansion” value rises from 0.000537 ± 1.3e-05 1/K to 0.000541 ± 1.3e-05 1/K.

First: CCCCCC[n+]1ccn(C)c1.O=S(=O)([N-]S(=O)(=O)C(F)(F)F)C(F)(F)F
Second: CCn1cc[n+](C)c1.O=S(=O)([N-]S(=O)(=O)C(F)(F)F)C(F)(F)F
The “isobaric coefficient of expansion” value of the first is lower: 0.000577 ± 1.4e-05 1/K for the first, 0.000581 ± 1.4e-05 1/K for the second.

CCCCCCCC[n+]1ccn(C)c1.F[B-](F)(F)F [1-methyl-3-octylimidazolium tetrafluoroborate] and CCCC[n+]1cccc(C)c1.F[B-](F)(F)F [1-butyl-3-methylpyridinium tetrafluoroborate] are the same in “isobaric coefficient of expansion” value: 0.000541 ± 1.1e-05 1/K for the first, 0.000541 ± 1.3e-05 1/K for the second.
